In patent US20240300980A1, “HETEROCYCLIC COMPOUNDS AS KRAS INHIBITOR, AND PREPARATION THEREFOR AND USE THEREOF IN TREATMENT” (SHANGHAI KECHOW PHARMA, INC., priority 2021, published 2024) one finds IC50 data, which are given here for 14 molecules.

For the first experiment, the system named is AGS cells (KRAS^G12D). The experiment can be described thus: Detection of cell proliferation in vitro by MTT/MTS method (cell activity experiment). In kind it is cell-based. The following applies: AGS cells; MTT/MTS; 3 days of drug treatment; read-out: AGS IC50. Put shortly:
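KRAS G12D AGS cells seeded at 1000 per well, compound added 24 h later, 0.5% final DMSO. Viability read after 3 days of treatment by MTT (solubilised in DMSO) or MTS, 4 h, absorbance 490 nm. IC50 from dose–response curves versus DMSO control.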
On the technique in general: Tetrazolium dyes change colour on reduction, which living cells bring about.
Usually IC50 stands for the concentration at which inhibition is half-maximal. Regarding `CCc1c(F)ccc2cc(O)cc(-c3ccc4c(N5C[C@H]6CC[C@@H](C5)[C@@H]6F)nc(OC[C@@]56CCCN5C[C@H](F)C6)nc4c3F)c12` [Example 124, 5-ethyl-6-fluoro-4-(8-fluoro-4-((1R,5S, 8R)-8-fluoro-3-azabicyclo[3.2.1]octan-3-yl)-2-(((2R,7aS)-2-fluorotetrahydro-1H-pyrrolizin-7a(5H)-yl)methoxy)quinazolin-7-yl)naphthalen-2-ol], the IC50 was over 2500 nM.

Consider `CSc1c(F)ccc2cc(O)cc(-c3ccc4c(N5C[C@H]6CC[C@@H](C5)N6)nc(OC[C@@]56CCCN5C[C@H](F)C6)nc4c3F)c12` [Example 336, 4-(4-((1R,5S)-3,8-diazabicyclo[3.2.1]octan-3-yl)-8-fluoro-2-(((2R,7aS)-2-fluorotetrahvdro-1H-pyrrolizin-7a(5H)-yl)methoxy)quinazolin-7-yl)-6-fluoro-5-(methylthio)naphthalen-2-ol], for which the IC50 was determined as 9.9 nM.

The experiment is the same for the next values; noted with them: Homo sapiens, AGS, 72 h, AGS cells; MTT/MTS; 3 days of drug treatment; read-out: AGS IC50.
In the case of `CCc1c(F)ccc2cc(O)cc(-c3ccc4c(N5C[C@H]6CC[C@@H](C5)C6(F)F)nc(OC[C@@]56CCCN5C[C@H](F)C6)nc4c3F)c12` [Example 120, 4-(4-((1R,5S)-8,8-difluoro-3-azabicyclo [3.2.1]octan-3-yl)-8-fluoro-2-(((2R,7aS)-2-fluorotetrahydro-1H-pyrrolizin-7a(5H)-yl)methoxy)quinazolin-7-yl)-5-ethyl-6-fluoronaphthalen-2-ol], the IC50 was over 2500 nM.

Consider `CCc1c(F)ccc2cc(O)cc(-c3ccc4c(N5C[C@H]6CC[C@@H](C5)N6)nc(OC[C@]56CCCN5[C@@H](COC(=O)N(C)C)CC6)nc4n3)c12` [Example 146, ((3R,7aR)-7a-(((4-((1R, 5S)-3,8-diazabicyclo [3.2.1]octan-3-yl)-7-(8-ethyl-7-fluoro-3-hydroxynaphthalen-1-yl)pyrido[2,3-d]pyrimidin-2-yl)oxy)methyl)hexahydro-1H-pyrrolizin-3-yl)methyl dimethylcarbamate], for which the half-inhibitory concentration (IC50) was over 2500 nM.

On to `Oc1cc(-c2cnc3c(N4C[C@H]5CC[C@@H](C4)N5)nc(OC[C@@]45CCCN4C[C@H](F)C5)nc3c2)c2c(F)c(F)ccc2c1` [Example 199, 4-(4-((1R,5S)-3,8-diazabicyclo[3.2.1]octan-3-yl)-2-(((2R,7aS)-2-fluorotetrahydro-1H-pyrrolizin-7a(5H)-yl)methoxy)pyrido[3,2-d]pyrimidin-7-yl)-5,6-difluoronaphthalen-2-ol], for which the IC50 is over 2500 nM.

For the molecule `C#Cc1c(F)ccc2cc(O)cc(-c3c(F)c4nc(OC[C@@]56CCCN5C[C@H](F)C6)nc(N5C[C@H]6CC[C@@H](C5)N6)c4c4cncn34)c12` [Example 398, 4-(1-((1R,5S)-3,8-diazabicyclo[3.2.1]octan-3-yl)-5-fluoro-3-(((2R,7aS)-2-fluorotetrahydro-1H-pyrrolizin-7a(5H)-yl)methoxy)imidazo[1′,5′:1,2]pyrido[4,3-d]pyrimidin-6-yl)-5-ethynyl-6-fluoronaphthalen-2-ol], the IC50 came out at 50 nM.

With `C#Cc1c(F)ccc2cc(O)cc(-c3ncc4c(N5CC6CCC(C5)[S+]6[O-])nc(OC[C@@]56CCCN5C[C@H](F)C6)nc4c3F)c12` (stereo partly drawn) [Example 22, (1R,5S,8R)-3-(7-(8-ethynyl-7-fluoro-3-hydroxynaphthalen-1-yl)-8-fluoro-2-(((2R,7aS)-2-fluorotetrahydro-1H-pyrrolizin-7a(5H)-yl)methoxy)pyrido [4,3-d]pyrimidin-4-yl)-8-thia-3-azabicyclo [3.2.1]octane 8-oxide], the IC50 is 3950 nM.

Regarding `C#Cc1c(F)ccc2cc(O)cc(-c3ncc4c(N5C[C@H]6CC[C@@H](C5)N6)nc(OC[C@@]56CCCN5C[C@H](F)C6)nc4c3O)c12` [Example 332, 4-((1R,5S)-3,8-diazabicyclo[3.2.1]octan-3-yl)-7-(8-ethynyl-7-fluoro-3-hydroxynaphthalen-1-yl)-2-(((2R,7aS)-2-fluorotetrahydro-1H-pyrrolizin-7a(5H)-yl)methoxy)pyrido[4,3-d]pyrimidin-8-ol], the IC50 is over 2500 nM.

Regarding `C#Cc1cc2c(N3C[C@H]4CC[C@@H](C3)N4)nc(OC[C@@]34CCCN3C[C@H](F)C4)nc2c(F)c1-c1cc(O)cc2ccc(F)c(C#C)c12` [Example 373, 4-(4-((1R,5S)-3,8-diazabicyclo[3.2.1]octan-3-yl)-6-ethynyl-8-fluoro-2-(((2R,7aS)-2-fluorotetrahydro-1H-pyrrolizin-7a(5H)-yl)methoxy)quinazolin-7-yl)-5-ethynyl-6-fluoronaphthalen-2-ol], the IC50 came out at 30 nM.

Consider `C[C@H]1CCCc2cc(O)cc(-c3ncc4c(N5CC6CCC(C5)N6)nc(OC[C@@]56CCCN5C[C@H](F)C6)nc4c3F)c21` (single isomer, unassigned) [Example 226, (S)-4-(4-((1R,5S)-3,8-diazabicyclo[3.2.1]octan-3-yl)-8-fluoro-2-(((2R,7aS)-2-fluorotetrahydro-1H-pyrrolizin-7a(5H)-yl)methoxy)pyrido[4,3-d]pyrimidin-7-yl)-5-methyl-5,6,7,8-tetrahydronaphthalen-2-ol or (R)-4-(4-((1R,5S)-3,8-diazabicyclo[3.2.1]octan-3-yl)-8-fluoro-2-(((2R,7aS)-2-fluorotetrahydro-1H-pyrrolizin-7a(5H)-yl)methoxy)pyrido[4,3-d]pyrimidin-7-yl)-5-methyl-5,6,7,8-tetrahydronaphthalen-2-ol], for which the half-inhibitory concentration (IC50) came to 2.4 nM.

`C#Cc1c(F)ccc2cc(O)cc(-c3ncc4c(N5CC(C#N)C5)nc(OC[C@@]56CCCN5C[C@H](F)C6)nc4c3F)c12` [Example 69, 1-(7-(8-ethynyl-7-fluoro-3-hydroxynaphthalen-1-yl)-8-fluoro-2-(((2R, 7aS)-2-fluorotetrahydro-1H-pyrrolizin-7a(5H)-yl)methoxy)pyrido[4,3-d]pyrimidin-4-yl) azetidine-3-carbonitrile]: the IC50 turned out to be 411 nM.

`Oc1cc2c(c(-c3ncc4c(N5C[C@H]6CC[C@@H](C5)N6)nc(OC[C@@]56CCCN5C[C@H](F)C6)nc4c3F)c1)C1CC1C2` (stereo partly drawn) [Example 73, 2-(4-((1R,5S)-3,8-diazabicyclo[3.2.1]octan-3-yl)-8-fluoro-2-(((2R,7aS)-2-fluorotetrahydro-1H-pyrrolizin-7a(5H)-yl)methoxy)pyrido[4,3-d]pyrimidin-7-yl)-1,1a, 6,6a-tetrahydrocyclopropa [a]inden-4-ol]: the IC50 was 16.9 nM.

As for `CC12CC1CCc1cc(O)cc(-c3ccc4c(N5C[C@H]6CC[C@@H](C5)N6)nc(OC[C@@]56CCCN5C[C@H](F)C6)nc4c3F)c12` (stereo partly drawn) [Example 281, 7-(4-((1R,5S)-3,8-diazabicyclo[3.2.1]octan-3-yl)-8-fluoro-2-(((2R,7aS)-2-fluorotetrahydro-1H-pyrrolizin-7a(5H)-yl)methoxy)quinazolin-7-yl)-7b-methyl-1a, 2,3,7b-tetrahydro-1H-cyclopropa[a]naphthalen-5-ol], the IC50 worked out at 537 nM.

Turning to `C#Cc1cccc2cc(O)cc(-c3ncc4c(N5C[C@H]6CC[C@@H](C5)N6)nc(OCC5(CN6CCCC6)CC5)nc4c3F)c12` [Example 1, 4-(4-((1R,5S)-3,8-diazabicyclo[3.2.1]octan-3-yl)-8-fluoro-2-((1-(pyrrolidin-1-ylmethyl)cyclopropyl)methoxy)pyrido[4,3-d]pyrimidin-7-yl)-5-ethynyl naphthalen-2-ol], the IC50 is 8.1 nM.
